Paper PMC9781652, “Dinuclear Iron Complexes of Iminopyridine-Based Ligands as Selective Cytotoxins for Tumor Cells and Inhibitors of Cancer Cell Migration” (Pharmaceutics, 2022)

What was measured:
[1] = system: NCI-H460 human lung carcinoma cells; assay: Cell proliferation assay (MTT), NCI-H460; assay type: cell-based; conditions: for IC50: 72 h exposure, MTT, mean ± SE; for SI NCI-H460 (selectivity index): ratio IC50 CCD-18Co / IC50 NCI-H460
Experimental: (§1) Cells were seeded into 96-well plates at densities of 1500 cells per well for OVCAR-8, 1900 for NCI-H460, and 4000 for CCD-18Co. After 24 h of incubation, they were treated for 72 h with different concentrations of the compounds (concentration range: 0.01 to 6 μM for OVCAR-8; 0.05 to 2 μM for NCI-H460; and 0.07 to 70 μM for CCD-18Co cells). When indicated, cells were also incubated with 30 µM of the ROS scavenger Manganese (III) 5,10,15,20-tetrakis (4-benzoic acid) porphyrin (MnTBAP) (Calbiochem, San Diego, CA, USA). Cell viability was measured using the MTT assay as previously described. The IC50 value corresponds to the concentration of the assayed compound that is required to inhibit the cell proliferation by 50%, and was calculated by linear interpolation from the obtained growth curves. All data are reported as the mean ± standard error (SE) calculated from at least three independent experiments with three replicates in each.

[2] = system: OVCAR-8 human ovarian carcinoma cells; assay: Cell proliferation assay (MTT), OVCAR-8; assay type: cell-based; conditions: for IC50: 72 h exposure, MTT, mean ± SE; for SI OVCAR-8 (selectivity index): ratio IC50 CCD-18Co / IC50 OVCAR-8
Experimental: as §1

[3] = system: CCD-18Co human colon fibroblasts; assay: Cell proliferation assay (MTT), non-tumor CCD-18Co; assay type: cell-based; conditions: non-tumor cells, 72 h exposure, mean ± SE
Experimental: as §1

[4] = system: supercoiled pUC18 DNA; assay: DNA interaction analysis by agarose gel electrophoresis; assay type: biochemical; conditions: 24 h, 37 °C
Experimental: The interaction of DNA with the compounds was monitored in an agarose gel electrophoresis as previously described. […] Two other samples were included in the assays: a sample of pUC18 DNA alone as negative control and a sample of pUC18 DNA with 5 µg/mL cisplatin for comparison purposes. […] Gels were stained with ethidium bromide (1 µg/mL in TBE) for 15 min and DNA bands were visualized under UV light.

SMILES | IC50 [1] | SI NCI-H460 (selectivity index) [1] | IC50 [2] | SI OVCAR-8 (selectivity index) [2] | IC50 [3] | Interaction with pUC18 DNA in the absence of H2O2 ([4]; 25-100 µM compounds (cisplatin 5 µg/mL), no H2O2) | Effect on pUC18 DNA in the presence of H2O2 at the highest concentrations ([4]; highest concentrations, with H2O2)
N.N.O=C([O-])C1(C(=O)[O-])CCC1.[Pt+2] [Carboplatin, carboplatin, reference compound] | 12.8 ± 2.23 µM | 18.8 | 110 ± 4.2 µM | 2.1 | 240 ± 25.2 µM |  | 
N.N.[Cl][Pt][Cl] [Cisplatin, cisplatin, reference compound] | 1.01 ± 0.14 µM |  | 6.91 ± 1.21 µM | 4.5 | 31.2 ± 5.76 µM | migration of the CCC form decreases until it co-migrates with the OC form | 
CC#N.CC#N.CC#N.CC#N.Cc1cc(N=Cc2ccccn2)c2c(c1)C1CC(O2)Oc2c(N=Cc3ccccn3)cc(C)cc21.Cc1cc(N=Cc2ccccn2)c2c(c1)C1CC(O2)Oc2c(N=Cc3ccccn3)cc(C)cc21.F[B-](F)(F)F.F[B-](F)(F)F.F[B-](F)(F)F.F[B-](F)(F)F.[Fe+2].[Fe+2] [Compound 7, [Fe21_2(CH3CN)4](BF4)4] | 0.43 ± 0.03 µM | 18.1 | 1.39 ± 0.14 µM | 5.6 | 7.78 ± 5.67 µM |  | 
CC#N.CC#N.CC#N.CC#N.Cc1cc(N=Cc2cccc(Br)n2)c2c(c1)C1CC(O2)Oc2c(N=Cc3cccc(Br)n3)cc(C)cc21.Cc1cc(N=Cc2cccc(Br)n2)c2c(c1)C1CC(O2)Oc2c(N=Cc3cccc(Br)n3)cc(C)cc21.F[B-](F)(F)F.F[B-](F)(F)F.F[B-](F)(F)F.F[B-](F)(F)F.[Fe+2].[Fe+2] [Compound 8, [Fe22_2(CH3CN)4](BF4)4] | 0.48 ± 0.13 µM | 14.6 | 1.27 ± 0.39 µM | 5.5 | 7 ± 3.43 µM |  | total DNA degradation
